Experimental data from the supplement of paper PMC10307832.

Assays:
Experiment in all cases: relative viability (nuclei count vs DMSO), 5 days (fraction); higher = more cells survive
[1] = compound: COc1cc2nccc(Oc3ccc(NC(=O)C4(C(=O)Nc5ccc(F)cc5)CC4)cc3)c2cc1OC [Cabozantinib] + Nc1nc2[nH]cc(CCc3ccc(C(=O)N[C@@H](CCC(=O)O)C(=O)O)cc3)c2c(=O)[nH]1 [Pemetrexed] (partner 0.2 µM)
Procedure, shortened: (§1)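 A single step with final 0.05% Triton X-100, 1% formaldehyde and 1 ug/ml Hoechst fixed the cells and stained nuclei 5 days after treatment. Lung cancer cell lines in 1536-well plates had been treated by pin tool the day after seeding with one drug alone or a fixed anchor-drug dose plus five library-drug doses (not always all listed) in √10 steps, and nuclei were counted on 4× images. Relative viability is the ratio of nuclei in treated wells to nuclei in vehicle wells, taken as the median of duplicate plates.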

Kobe2602 + Dasatinib = compound: C1=CC(=CC=C1NC(=S)NNC2=C(C=C(C=C2[N+](=O)[O-])C(F)(F)F)[N+](=O)[O-])F [Kobe2602] + Cc1nc(Nc2ncc(C(=O)Nc3c(C)cccc3Cl)s2)cc(N2CCN(CCO)CC2)n1 [Dasatinib] (partner 0.075 µM)
Procedure, shortened: as §1

[2] = compound: COc1cc2nccc(Oc3ccc(NC(=O)C4(C(=O)Nc5ccc(F)cc5)CC4)cc3)c2cc1OC [Cabozantinib] + CC1(C)CCC(c2ccc(Cl)cc2)=C(CN2CCN(c3ccc(C(=O)NS(=O)(=O)c4ccc(N[C@H](CCN5CCOCC5)CSc5ccccc5)c(S(=O)(=O)C(F)(F)F)c4)cc3)CC2)C1 [Navitoclax] (partner 0.5 µM)
Procedure, shortened: as §1

[3] = compound: COc1cc2nccc(Oc3ccc(NC(=O)C4(C(=O)Nc5ccc(F)cc5)CC4)cc3)c2cc1OC [Cabozantinib] + CC(=O)c1c(C)c2cnc(Nc3ccc(N4CCNCC4)cn3)nc2n(C2CCCC2)c1=O [Palbociclib] (partner 0.5 µM)
Procedure, shortened: as §1

| Cell Line | relative viability ([1]; first compound 0.02 µM) | relative viability ([1]; first compound 0.06325 µM) | relative viability ([1]; first compound 0.2 µM) | relative viability ([1]; first compound 0.6325 µM) | relative viability ([1]; first compound 2 µM) | relative viability (Kobe2602 + Dasatinib; first compound 0.2 µM) | relative viability (Kobe2602 + Dasatinib; first compound 0.6325 µM) | relative viability (Kobe2602 + Dasatinib; first compound 2 µM) | relative viability (Kobe2602 + Dasatinib; first compound 6.325 µM) | relative viability (Kobe2602 + Dasatinib; first compound 20 µM) | relative viability ([2]; first compound 0.02 µM) | relative viability ([2]; first compound 0.06325 µM) | relative viability ([2]; first compound 0.2 µM) | relative viability ([2]; first compound 0.6325 µM) | relative viability ([2]; first compound 2 µM) | relative viability ([3]; first compound 0.02 µM) | relative viability ([3]; first compound 0.06325 µM) | relative viability ([3]; first compound 0.2 µM) | relative viability ([3]; first compound 0.6325 µM) | relative viability ([3]; first compound 2 µM) |
| --- | --- | --- | --- | --- | --- | --- | --- | --- | --- | --- | --- | --- | --- | --- | --- | --- | --- | --- | --- | --- |
| HOP-62 | 0.271 | 0.364 | 0.34 | 0.336 | 0.3 | 0.646 | 0.69 | 0.593 | 0.689 | 0.721 | 1.13 | 0.987 | 1.07 | 1.05 | 1.13 | 0.503 | 0.488 | 0.416 | 0.506 | 0.491 |
| LC-2-ad | 0.279 | 0.285 | 0.271 | 0.278 | 0.253 | 0.562 | 0.642 | 0.454 | 0.636 | 0.686 | 0.454 | 0.57 | 0.541 | 0.35 | 0.325 | 0.569 | 0.569 | 0.472 | 0.367 | 0.341 |
| LCLC-97TM1 | 0.155 | 0.179 | 0.181 | 0.17 | 0.17 | 0.886 | 0.759 | 0.705 | 0.937 | 0.802 | – | 0.5 | 0.618 | 0.484 | 0.589 | 0.189 | 0.228 | 0.221 | 0.253 | 0.222 |
| LK-2 | – | 0.427 | 0.236 | 0.266 | 0.296 | 0.377 | 0.35 | 0.319 | 0.274 | 0.342 | 0.642 | 1 | 0.842 | 0.886 | 0.794 | – | 0.969 | 0.704 | 0.69 | 0.636 |
| LOU-NH91 | 0.424 | 0.366 | 0.487 | 0.371 | 0.413 | 0.506 | 0.596 | 0.476 | 0.535 | 0.617 | 0.72 | 0.845 | 0.441 | 0.666 | 0.7 | 0.527 | 0.518 | 0.558 | 0.549 | 0.557 |
| LU99A | 0.18 | 0.199 | 0.216 | 0.173 | 0.229 | 0.427 | 0.461 | 0.433 | 0.525 | 0.615 | 0.774 | 0.9 | 0.762 | 0.686 | 0.783 | 0.381 | 0.419 | 0.447 | 0.39 | 0.362 |
| LXF-289 | 0.957 | 0.953 | 0.868 | 0.883 | 0.897 | 0.253 | 0.23 | 0.248 | 0.208 | 0.245 | 0.991 | 0.934 | 0.926 | 0.927 | 0.933 | 0.582 | 0.625 | 0.532 | 0.618 | 0.559 |
| NCI-H23 | – | 0.819 | 0.471 | 0.655 | 0.476 | 0.697 | 0.879 | 0.776 | 0.817 | 1.02 | – | 0.913 | 0.972 | 0.71 | 0.644 | – | 0.541 | 0.579 | 0.541 | 0.437 |
| NCI-H322M | 0.614 | 0.744 | 0.578 | 0.628 | 0.613 | 0.254 | 0.25 | 0.245 | 0.241 | 0.297 | 1.24 | 1.4 | – | 1.2 | 1.19 | 0.533 | 0.565 | 0.446 | 0.498 | 0.454 |
| NCI-H441 | 0.243 | 0.237 | 0.288 | 0.229 | 0.235 | 0.66 | 0.606 | 0.71 | 0.699 | 0.621 | – | 0.508 | 0.393 | 0.578 | 0.662 | 0.157 | 0.286 | 0.181 | 0.23 | 0.184 |
| NCI-H460 | 0.0695 | 0.0609 | 0.0626 | 0.0622 | 0.0696 | 0.504 | 0.518 | 0.507 | 0.49 | 0.575 | 1.46 | 1.39 | 1.09 | 1.11 | 1.24 | 0.168 | 0.243 | 0.245 | 0.187 | 0.165 |
| NCI-H520 | 0.625 | 0.747 | 0.667 | 0.63 | 0.552 | 0.205 | 0.233 | 0.197 | 0.222 | 0.202 | 0.902 | 1.16 | 1.21 | 1.02 | 0.998 | 0.266 | 0.245 | 0.268 | 0.228 | 0.203 |
| NCI-H647 | 0.165 | 0.192 | 0.162 | 0.149 | 0.133 | 0.244 | 0.338 | 0.158 | 0.17 | 0.2 | 0.994 | 1.15 | 1.06 | 1.11 | 0.886 | 0.47 | 0.456 | 0.406 | 0.335 | 0.358 |
| NCI-H838 | 0.276 | 0.263 | 0.234 | 0.288 | 0.244 | 0.264 | 0.309 | 0.249 | 0.291 | 0.289 | 1.21 | 1.19 | 1.12 | 1.03 | 1.03 | 0.216 | 0.244 | 0.231 | 0.218 | 0.21 |
| NCI-H1355 | 1.05 | 1.12 | 1.04 | 1.07 | 1.06 | 0.647 | 0.737 | 0.683 | 0.664 | 0.627 | 0.96 | 0.974 | 0.967 | 0.893 | 0.861 | 0.423 | 0.448 | 0.389 | 0.371 | 0.379 |
| NCI-H1395 | 0.699 | 1.03 | 0.924 | 0.714 | 0.824 | 0.468 | 0.456 | 0.452 | 0.442 | 0.442 | 1.13 | 1.1 | 1.41 | 1.12 | 1.12 | 0.631 | 0.79 | 0.626 | 0.642 | 0.54 |
